Measured values reported in US10851386B2, “Plants transformed to express a phosphite dehydrogenase enzyme capable of metabolizing phosphite to reduce competition from weeds” (Centro de Investigación y de Estudios Avanzados del …, priority 2008, dated 2020).

What was measured:
[1] = system: transgenic PTXD-3 and PTXD-5 lines; test: Growth on liquid growth medium with phosphite or phosphate as phosphorus source; format: in vivo, Arabidopsis thaliana
Procedure: Two transgenic Arabidopsis lines, dubbed PTXD-3 and PTXD-5, were prepared and isolated as described in Example 1. Each line is homozygous for the ptxD expression construct of Example 1.
(§1) The parental line and the PTXD-3 and PTXD-5 transgenic lines were tested for the ability to grow on a liquid medium, with or without inorganic phosphate (Pi) as the source of phosphorus. Seeds from the parental and transgenic lines were germinated in liquid media and tested for growth.
(§2) In FIG. 7, the absence or presence of sustained plant growth (beyond the germination stage) is identified with a minus (−) or a plus (+) symbol, respectively. […] Therefore, the transgenic lines acquired the ability to metabolize phosphite as a phosphorus source to support plant growth.

[2] = system: parental (WT) line Col-0; test: as above; format: in vivo, Arabidopsis thaliana
Procedure: as §1, §2

[3] = system: transgenic tobacco homozygous for the 35S::PtxD gene; test: Tobacco seedling growth in MS media with phosphate or phosphite as only phosphorus source; format: in vivo, Nicotiana tabacum; settings: for seedling growth: MS media, 25 days after germination, FIG. 13
Procedure: (§3) Nicotiana tabacum was transformed with the expression construct described in Example 1. In particular, tobacco leaf explants were co-cultivated with an Agrobacterium strain harboring a 35S::PtxD construct (Example 1) within its T-DNA. Leaf discs were allowed to regenerate in MS media containing 1 mM phosphite as the only phosphorus source. Plants regenerated from these leaf discs on phosphite-containing media were transferred to soil and allowed to set seed under greenhouse conditions.
(§4) The presence or absence of growth (after depletion of seed-furnished phosphorus) is indicated by a plus (+) or a minus (−) symbol, respectively.
(§5) Seedlings were germinated and maintained in MS media supplemented with 1 mM phosphite as the only phosphorus source for 25 days. The seedlings then were transferred to tissue culture flasks containing MS with 1 mM phosphite as the only phosphorus source and were allowed to grow for 25 additional days in a plant growth chamber at 23° C., with a photoperiod of 18 h light, followed by 6 h darkness for each 24-hour period.

[4] = system: Control plants (wild-type Col-0); test: Growth in media containing only phosphite as external source of phosphorus; format: in vivo, Arabidopsis thaliana; settings: only phosphite (about 0.1 to 5 mM) as external source of phosphorus
Procedure: (§6) The transformed Agrobacterium clone was used to transform Arabidopsis thaliana (ecotype Col-0) (generally described herein as “wild-type” (WT)) using a modified floral dip method. Transformed T0 progeny were selected using phosphinothricin resistance. In particular, screening was performed with MS 0.1× media containing phosphinothricin (20 mg/L). Twenty-eight resistant lines were identified through PCR amplification of the ptxD gene.
(§7) The ptxD transgenic plants were tested for their ability to grow in media containing only phosphite (e.g., about 0.1 to 5 mM) as an external source of phosphorus.

[5] = system: ptxD transgenic plants; test: Growth or selection in media containing only phosphite as external source of phosphorus; format: in vivo, Arabidopsis thaliana
Procedure: as §6, §7
The ptxD expression construct also was used to provide a selectable marker for selection of transgenic plants with modified phosphorus metabolism. Wild-type Col-0 plants were transformed using Agrobacterium containing the ptxD expression construct. T0 progeny (seeds) were plated on a medium with phosphite (5 mM) as the source of phosphorus.

[6] = system: transgenic plants (PTXD-3 and PTXD-5); test: Reduction of total phosphorus in growth medium containing phosphite (vanadium-molybdate method); format: in vivo, Arabidopsis thaliana; settings: initially 50, 100 or 1000 μM phosphite; 45 days; 100 plants per container; FIG. 8
Text: Wild type and the two transgenic Arabidopsis lines, PTXD-3 and PTXD-5, were germinated and cultivated in one-liter plastic containers with 0.1× Murashige and Skoog liquid medium lacking phosphate and supplemented with either 50, 100 or 1000 micromolar phosphorous acid (H3PO3). One hundred plants per plastic container were allowed to grow for 45 days in the plastic container in a growth chamber with a 16:8 light:dark cycle for each 24-hour period. The plants were covered to avoid moisture loss. A double layer of plastic mesh was placed where seeds were sown to germinate on top of liquid media in each plastic container.
After 45 days of growth the total phosphorus content was determined in the liquid media, after removing the plants, using a vanadium-molybdate method. Briefly, 5 mL of liquid media from each sample was digested with nitric acid:perchloric acid (HNO3:HClO4; 5:1). Then, the phosphorus content was determined with a colorimetric method based on the addition of a solution of ammonium molybdate (20 mM) and ammonium metavanadate (10 mM) in 70% perchloric acid. After a 20-minute incubation at room temperature, the absorbance at 400 nm was measured with a spectrophotometer.
In FIG. 8, the first three bars labeled as “initial” represent the initial concentration of total phosphorus in the media without plants. […]

[7] = system: ptxD transgenic (PTXD) plants; test: Growth and dry weight on sand:vermiculite substrate with phosphate or phosphite; format: in vivo, Arabidopsis thaliana; settings: sand:vermiculite (1:1)
Procedure: (§8) FIGS. 10 and 11 show photographs of parental and ptxD transgenic plants distributed according to FIG. 9 and tested for growth on a substrate containing added phosphate (Pi) (FIG. 10) or phosphite (Phi) (FIG. 11) as the source of phosphorus. […] The plants here and in FIG. 11 were grown in a sand:vermiculite mixture (1:1) and received water and nutrient solutions (lacking any other phosphorus source except as previously indicated) periodically.
(§9) The dry weight of three plants cultivated in sand:vermiculite (1:1) as substrate is plotted in the figure with respect to each particular plant line and source(s) of phosphorus.

[8] = system: parental (WT) plants; test: as above; format: in vivo, Arabidopsis thaliana; settings: sand:vermiculite (1:1)
Procedure: as §8, §9

[9] = system: control tobacco seedlings; test: Tobacco seedling growth in MS media with phosphate or phosphite as only phosphorus source; format: in vivo, Nicotiana tabacum
Procedure: as §3, §4, §5

[10] = 50 μM inorganic phosphate, FIG. 7
[11] = 50, 100, and 1000 μM inorganic phosphite as phosphorus source, FIG. 7
[12] = MS with 1 mM phosphite as only phosphorus source, 25 days plus 25 additional days, FIG. 14

Row | SMILES | growth [1, 10] | growth ([1]; 50, 100, and 1000 μM phosphate) | growth [2, 10] | growth ([2]; 50, 100, and 1000 μM phosphate) | seedling growth ([3]; 1 mM Pi as only phosphorus source) | growth [4] | growth of T0 progeny relative to wild type plants ([5]; medium with phosphite (5 mM) as the source of phosphorus, FIG. 6) | growth ([5]; only phosphite (about 0.1 to 5 mM) as external source of phosphorus) | decrease of phosphorus content in the media (removal of phosphite) [6] | growth [1, 11] | growth (dry weight of three plants) on phosphite relative to phosphate ([7]; FIG. 12) | sustained growth on substrate ([7]; added phosphite (Phi), FIG. 11) | sustained growth on substrate ([8]; added phosphite (Phi), FIG. 11) | growth (dry weight of three plants) ([8]; phosphite as the source of phosphorus, FIG. 12) | growth [2, 11] | seedling growth ([3]; 1 mM Phi as only phosphorus source) | growth [3, 12] | seedling growth ([9]; MS media, 1 mM Phi as only phosphorus source, 25 days after germination, FIG. 13) | growth and development [9, 12]
1 | O=P(O)(O)O [phosphate, phosphoric acid (H3PO4)] | grew efficiently | grew efficiently | grew efficiently | grew efficiently | sustained growth | – | – | – | – | – | – | – | – | – | – | – | – | – | –
2 | OP(O)O [phosphite, phosphorous acid (H3PO3)] | – | – | – | – | – | no substantial growth | substantial growth advantage | grew efficiently | more than 50% | grew efficiently | grew similarly or better | only the transgenic plants were capable of sustained growth | only the transgenic plants were capable of sustained growth | did not grow substantially | but not the parental line | sustained growth | able to sustain rapid growth | unable to sustain normal growth | unable to use phosphite
